Results as given in patent US20120116027A1, “PROCESS FOR THE PURIFICATION OF HUMAN GROWTH HORMONE POLYPEPTIDES USING AFFINITY RESINS COMPRISING SPECIFIC LIGANDS” (priority 2008, published 2012).
Where a SMILES comes first, the peptide text is derived from it. [ ]: non-standard residue; d: D form. The star is where a group is joined. X1 = O=C(c1ccc2ccccc2c1O)*; Dap = NC[CH](N)C(=O)O; Aib = CC(C)(N)C(=O)O

Legend:
hGH [1] = biological target: T1, hGH (Homo sapiens, UniProt P01241); experiment: Evaluation of ligand synthesized directly on Fractogel in 5 mL scale (capacity, recovery, purity); assay type: binding; conditions: load 50 mM BisTris pH 6.25, elution 50 mM BisTris pH 8.00 gradient; for Dynamic 10% BT capacity for micro-filtrate hGH / Dynamic 10% BT capacity for pure hGH: 2 mL/min
T1 construct: made in house; host or cells: E. coli
Method: Ligand L14 from Example 1 was synthesized directly on Fractogel. The resin was evaluated in 5 mL scale.
Load buffer: 50 mM BisTris at pH 6.25
Elution buffer: 50 mM BisTris at pH 8.00 gradient
Temperature: 15° C. (20° measured by Äkta)
Ligand L16 from Example 1 was synthesized directly on Fractogel Amino. This resin was evaluated in 5 mL scale.

wild type hGH = wild type hGH (Homo sapiens, UniProt P01241); experiment: Binding capacity for wild type hGH of ligands synthesized on Fractogel Amino (1 mL columns); conditions: ligand on Fractogel Amino; for Measured binding capacity (mg hGH/mL resin): load 5 mg/mL hGH in 25 mM Tris-HCl pH 7.50, 0.5 mL/min, elution gradient 1M NaCl/25 mM Tris pH 7.5
Method: (§1) were stepwise synthesized on Fractogel Amino (Merck) with amine loading 0.16 mmol/g and particle size 40-90 μm. The resins were washed thoroughly with DMF, DCM, and ethanol and packed in 1 mL columns and washed with 0.2 M NaOH and then with 20% ethanol, and equilibrated with 25 mM Tris-HCl at pH=7.50 (buffer A).
Binding capacity for wild type hGH was measured for each resin sample by • a) loading the column with a 5 mg/mL solution of hGH in buffer A at a flow rate of 0.5 mL/min, • b) washing the column with at least 10 column volumes of buffer A until a steady low UV absorbance of the buffer leaving the column was observed, • c) eluting the protein by applying a gradient of 1M NaCl/25 mM Tris at pH=7.5 (buffer B) • d) cleaning the column with 0.2 M NaOH, then with buffer B, and then with buffer A.
The binding capacity was calculated by integrating the UV signal during step (c) and indicated for each ligand above.

hGH [2] = biological target: T1, hGH; experiment: Resin selectivity test with hGH fermentation broth, judged by SDS page gels of the eluate; conditions: ligand on Fractogel Amino, hGH fermentation broth diluted five times with buffer A
Method: as §1
Resin selectivity was tested by • (a) loading the column with hGH fermentation broth diluted five times with buffer A • (b) washing the column with at least 10 column volumes of buffer A until a steady low UV absorbance of the buffer leaving the column was observed, • (c) eluting the protein by applying a gradient of buffer B • (d) cleaning the column with 0.2 M NaOH, then with buffer B, and then with buffer A.
“Observed selectivity” was judged by SDS page gels of the eluate […] and indicated for each ligand above. An example of a resin with “very good” selectivity (ligand L11 on Fractogel) and an example of a resin with “moderate” selectivity (ligand L6 on Fractogel) are given in FIG. 3.

hGH [3] = biological target: T1, hGH; experiment: Affinity purification of hGH from E. coli micro-filtrate with ligand L10 resin (purity and recovery); conditions: load 50 mM BisTris-HCl pH 6.25
Method: (§2) Ligand L10 from Example 1 was synthesized step-wise on Fractogel Amino M (Supplied by Merck KgaA), and the resulting affinity resin was packed in Tricorn 5/50, 1 mL (GE Healthcare).
(§3) hGH micro-filtrate buffer: 2.61 mg/mL hGH E. coli micro-filtrate from hGH harvest. A frozen 15 mL sample was thawed at room temperature and filtered using a syringe-driven filter ([…]). Diluted to 0.52 mg hGH/mL with Buffer A.
An elution buffer of 200 mM Tris-HCl, pH 8.00, 1 M NaCl, 30% propylene glycol results in high recovery of hGH. This elution buffer and the aforementioned 50 mM BisTris-HCl, pH 6.5 load buffer was used. The column was overloaded with hGH. The results from an experiment using these conditions are shown below:
The loading buffer was changed to 50 mM BisTris-HCl at pH 6.25 and different elution buffers at pH 7.25, 7.50 and 8.00 were tested.
Chromatograms and gels are shown in FIG. 8 for the run with the following conditions: Load buffer: 50 mM BisTris at pH 6.25 and Elution buffer: 50 mM BisTris at pH 8.00

hGH [4] = experiment: Dynamic 10% BT capacity of ligand L10 on Fractogel Amino M; assay type: binding, human; conditions: load 50 mM BisTris-HCl pH 6.50, 0.5 mL/min (150 cm/h), 15° C.
Method: as §2
(§4) hGH standard: hGH was dissolved to 20 mg/mL in freshly made 50 mM NH41-1CO3, then diluted to 2 or 3.3 mg/mL with Buffer A (50 mM Tris-HCl, pH=7.50, T=15° C. (20° C. in Äkta)).
as §3
(§5) Buffer A1: 50 mM BisTris-HCl, pH=6.50, T=15° C. (20° C. in Äkta), flow 0.5 mL/min (150 cm/h)
(§6) Buffer Z1: 25 mM Tris-HCl, 1M NaCl, pH=7.50, T=15° C. (20° C. in Äkta), flow 0.5 mL/min (150 cm/h)

hGH [5] = biological target: T1, hGH; experiment: as above; assay type: binding; conditions: load 50 mM BisTris-HCl pH 6.50, 0.5 mL/min (150 cm/h), 15° C.
Method: as §2, §4, §3, §5, §6

T1 sequence (P01241 27-217): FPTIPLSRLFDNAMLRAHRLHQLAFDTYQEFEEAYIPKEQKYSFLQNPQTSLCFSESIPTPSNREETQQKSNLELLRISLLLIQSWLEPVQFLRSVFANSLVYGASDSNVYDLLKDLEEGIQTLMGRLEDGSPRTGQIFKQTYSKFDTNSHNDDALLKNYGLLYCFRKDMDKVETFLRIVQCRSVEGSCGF
Sequence of wild type hGH (P01241 27-217): as above

Compound | Measured binding capacity (mg hGH/mL resin) (wild type hGH) | Observed selectivity (hGH [2]) | other results
NCCCC[C@H](N)C(=O)N[C@@H](Cc1ccccc1)C(=O)N[C@@H](CNC(=O)c1c2c(nc3ccccc13)CCCC2)C(=O)O [L14] | >5 mg hGH/mL resin | Good | Purity (hGH [1]): 71%; Dynamic 10% BT capacity for micro-filtrate hGH (hGH [1]): 6.7 mg/mL; Dynamic 10% BT capacity for pure hGH (hGH [1]): 16.3 mg/mL
CC[C@H](C)[C@H](N)C(=O)N[C@@H](Cc1ccc(O)cc1)C(=O)N[C@@H](CNC(=O)c1scc(S(=O)(=O)c2ccccc2)c1N)C(=O)O [L8] | 6 mg hGH/mL resin | Moderate | 
C[C@@H](O)[C@H](NC(=O)[C@@H](N)CCCNC(=N)N)C(=O)N[C@@H](CNC(=O)c1c2c(nc3ccccc13)CCCC2)C(=O)O [L13] | >10 mg hGH/mL resin | Moderate | 
O=C(NC[C@H](NC(=O)[C@H]1CCCN1C(=O)[C@H]1CCCN1)C(=O)O)c1c2c(nc3ccccc13)CCCC2 [L12] | 2 mg hGH/mL resin | Good | 
CC(C)(NC(=O)C(CNC(=O)c1ccc2ccccc2c1O)NC(=O)C(Cc1ccc(O)cc1)NC(=O)C(N)CCCNC(=N)N)C(=O)O (stereo not shown) [L19] (H-RY[Dap](X1)[Aib]-OH; configuration not given here) |  |  | binding capacity (wild type hGH; same procedures as Example 1): < 0.5 mg/mL
CC[C@@H](C)[C@H](NC(=O)[C@@H](N)Cc1c[nH]c2ccccc12)C(=O)N[C@@H](CNC(=O)c1scc(S(=O)(=O)c2ccccc2)c1N)C(=O)O [L7] | 2 mg hGH/mL resin | Good | 
N=C(N)NCCC[C@H](N)C(=O)N[C@@H](Cc1ccccc1)C(=O)N[C@@H](CNC(=O)C1CC(=O)c2ccccc21)C(=O)O (stereo partly shown) [L9] | 10 mg hGH/mL resin | Good | 
N[C@@H](Cc1ccccc1)C(=O)N[C@@H](Cc1ccccc1)C(=O)N[C@@H](CNC(=O)c1c2c(nc3ccccc13)CCCC2)C(=O)O [L11] | 2 mg hGH/mL resin | Very good | 
N[C@@H](Cc1ccc(O)cc1)C(=O)N[C@@H](Cc1ccccc1)C(=O)N[C@@H](CNC(=O)C1c2ccccc2Oc2ccccc21)C(=O)O [L3] | 5 mg hGH/mL resin | Moderate | 
CC(O)C(N)C(=O)NC(CC(=O)O)C(=O)NC(CNC(=O)c1ccc2nccnc2c1)C(=O)O (stereo not shown) [L17] | <0.5 mg hGH/mL resin |  | 
CC[C@H](C)[C@H](N)C(=O)N[C@@H](Cc1ccccc1)C(=O)N[C@@H](CNC(=O)c1c2c(nc3ccccc13)CCCC2)C(=O)O [L10] | 3 mg hGH/mL resin | Very good | Purity of eluate (hGH [3]; Elution pH 7.25): 91%; Purity of eluate (hGH [3]; Elution pH 7.50): 85%; Purity of eluate (hGH [3]; Elution pH 8.00): 85%; dynamic 10% BT capacity for hGH micro-filtrate (hGH [4]): 3.22 mg/mL; Dynamic 10% BT capacity (purified hGH) (hGH [5]): 6.7 mg/mL
N=C(N)NCCC[C@H](NC(=O)[C@@H](N)Cc1ccccc1)C(=O)N[C@@H](CNC(=O)C1c2ccccc2Oc2ccccc21)C(=O)O [L2] | 7 mg hGH/mL resin | Good | 
Cc1ccc([N+](=O)[O-])c(C(=O)NCC(NC(=O)C(Cc2c[nH]cn2)NC(=O)C(N)CC(=O)O)C(=O)O)c1 (stereo not shown) [L18] | <0.5 mg hGH/mL resin |  | 
CC[C@@H](C)[C@H](N)C(=O)N[C@@H](CCCCN)C(=O)N[C@@H](CNC(=O)c1c(C)nc2ccccn12)C(=O)O [L16] | >10 mg hGH/mL resin | Moderate | Purity (hGH [1]): 70%; Dynamic 10% BT capacity for micro-filtrate hGH (hGH [1]): 5.7 mg/mL; Dynamic 10% BT capacity for pure hGH (hGH [1]): 11.9 mg/mL
Cc1nc2ccccn2c1C(=O)NC[C@H](NC(=O)[C@H](CCCNC(=N)N)NC(=O)[C@@H](N)Cc1ccccc1)C(=O)O [L15] | >5 mg hGH/mL resin | Good | 
N[C@@H](Cc1ccccc1)C(=O)N[C@@H](Cc1ccccc1)C(=O)N[C@@H](CNC(=O)C1c2ccccc2Oc2ccccc21)C(=O)O [L4] | 1 mg hGH/mL resin | Good | 
NCCCC[C@H](NC(=O)[C@@H](N)Cc1ccccc1)C(=O)N[C@@H](CNC(=O)c1scc(S(=O)(=O)c2ccccc2)c1N)C(=O)O [L6] | 13 mg hGH/mL resin | Moderate | 
Cc1nn(-c2ccccc2)nc1C(=O)NC[C@H](NC(=O)[C@H](Cc1ccccc1)NC(=O)[C@@H](N)Cc1c[nH]c2ccccc12)C(=O)O [L5] | 2 mg hGH/mL resin | Good | 
N=C(N)NCCC[C@H](N)C(=O)N[C@@H](Cc1ccc(O)cc1)C(=O)N[C@@H](CNC(=O)C1c2ccccc2Oc2ccccc21)C(=O)O [L1] | 14 mg hGH/mL resin | Moderate | 
